Patent US12521439B2, “Methods and materials for modulating Nrf2 pathway” (The General Hospital Corporation, priority 2019, dated 2026)

Legend:
ARE (Nrf2 pathway) = assay: ARE-Gluc luciferase reporter (normalized to SV40-Vluc); type: cell-based, human
Source text: DNA expression constructs: ARE reporter was designed and generated based on our previously published reporter for monitoring of the transcription factor Nuclear Factor Kappa B (NFkB). NFkB TRE elements were removed and replaced with four copies of the ARE enhancer sequence. This reporter consists of a CSCW lentivirus vector in which we have introduced two copies of the 1.2 kb chicken beta-globin (HS4) insulator elements, a TATA box acting as a minimal promoter upstream of the secreted Gaussia luciferase (Gluc). pcDNA3-HA2-Keap1 (Addgene plasmid #21556) and pcDNA3-HA2-Keap1 delta BTB (Addgene plasmid #21593) were a gift from Yue Xiong^2. pHAGE DN Cullin 3 (DN-CUL3) was a gift from Stephen Elledge (Addgene plasmid #41913). Constructs expressing constitutively active Gluc, Firefly luciferase (Fluc) and Vargula luciferase (Vluc) were previously describe. MISSION shRNA Bacterial Glycerol Stocks for Keap1 as well as a non-target shRNA were obtained from Sigma. Transfection of plasmid DNA was performed using Lipofectamine 2000 (Invitrogen) as per manufacturer's guidelines. Lentivirus packaging and titration was performed in 293T cells by the MGH viral vector core facility following standard protocols. Keap1 mutant C151S plasmid was kindly provided by Dr. Wooyoung Hur.
Luciferase assay: Coelenterazine (20 μM; Nanolight), The Gluc substrate was added to a 25 μL aliquot of conditioned medium and photon counts were measured using a luminometer. Similarly, the secreted Vluc activity was measured by adding its substrate vargulin (5 ng/mL; Nanolight). Cells stably expressing Gluc under the ARE enhancer sequence and Vluc under the constitutively active SV40 minimal promoter were used to determine the ARE reporter activity. The normalized Gluc/Vluc ratio was used as a marker for ARE activation.

[1] = tested on: tumour-infiltrating CD4+ and CD8+ T cells; assay: Ex vivo stimulation of tumour-infiltrating T cells (anti-CD3/anti-CD28); type: cell-based, mice; conditions: cells from OBT-treated tumours, cultured 3 days
Source text: To confirm reversion of T cell exhaustion and activation of cytotoxic T cells by OBT, tumour-infiltrating CD4+ and CD8+ T cells (n=3) were isolated and cultured in the presence of anti-CD3 and anti-CD28 antibodies to mimic an antigenic stimulation.

GSCs (GBM8 and BT07) = assay: Multiplexed quantitative (TMT) proteomics after OBT treatment; type: cell-based, human; conditions: 20 h after subtoxic dose, two GSC lines
Method: Quantitative Proteomics: Cell pellets were lysed in a buffer of 75 mM NaCl, 50 mM HEPES pH 8.5, 10 mM sodium pyrophosphate, 10 mM sodium fluoride, 10 mM β-glycerophosphate, 10 mM sodium orthovanadate, 10 mM PMSF, Roche complete mini EDTA free protease inhibitors (1 tablet per 20 ml), and 3% SDS. Lysis was achieved by passing the suspension through a 21-gauge needle 20 times. Proteins were prepared for proteomics analysis as described previously. […] Twelve fractions were analyzed by multiplexed quantitative proteomics performed on an Orbitrap Fusion mass spectrometer (Thermo Scientifc) using a Simultaneous Precursor Selection (SPS) based MS3 method. […] For the cell line samples only MS3 with an average signal-to-noise value of larger than 40 per reporter ion as well as with an isolation specificity of larger than 0.75 were considered for quantification. […] A two-step normalization of the protein TMT-intensities was performed by first normalizing the protein intensities over all acquired TMT channels for each protein based on the median average protein intensity calculated for all proteins. To correct for slight mixing errors of the peptide mixture from each sample a median of the normalized intensities was calculated from all protein intensities in each TMT channel and the protein intensities were normalized to the median value of these median intensities. […]

CT2A mouse gliomas = assay: Immunophenotyping of tumor-infiltrating immune cells (flow cytometry); type: in vivo, C57BL/6 mice
Method: The effect of OBT on glioma immunomodulation in vivo was next evaluated. 50,000 CT2A cells expressing Fluc were implanted in the striatum of immunocompetent C57BL/6 mice. Two weeks post-injection, mice were i.p. injected with OBT (7.5 mg/kg body weight/day) or PBS/DMSO control, over 4 days (n=6/group). Mice were sacrificed, brains removed, and tumor tissues dissected out and homogenized. […] OBT increased intratumoral CD8+ cytotoxic T cells with higher levels of both Ki-67 and granzyme B (markers for increased activation of effector cells, abrogation of suppressive immune cells) and decreased CD4+ regulatory T cells (Treg; CD25^+Foxp3^+), typically used by the tumour to escape the immune system, leading to an increase in the ratio of CD8+ T cells over Tregs (FIG. 25B-D). […] CTLA-4, PD-1, Lag-3 and Tim-3 levels (hallmark for exhausted and anergic T cells) were not changed on any of these cells (FIG. 25B; only showing PD-1).

CT2A mouse glioma cells = assay: Cytokine/chemokine array of glioma cell lysates; type: cell-based; conditions: OBT 4 μM, 24 hrs
Method: To evaluate the effect of OBT on glioma secretome, CT2A mouse glioma cells were treated with OBT (4 μM) for 24 hrs and analyzed cell lysates by cytokine/chemokine array. GBM cells responded to OBT, Nrf2 and ROS induction, by activating several cytokines known to be involved in immune cell chemotaxis and migration (CCL2, CXCL10, IL-6). […] These innate immunity-related factors may directly contribute to control tumor growth or shape the development of adaptive immunity. Thus, OBT can induce factors that induces activation of tumor immune response.

SMILES: COC1=CC(=O)C(O)=C/C1=C/C=C/c1ccccc1 [OBT, (Z)-2-hydroxy-5-methoxy-4-((E)-3-phenylallylidene)cyclohexa-2,5-dien-1-one]
- OBT-induced ARE activation and loss of cell viability with thiol antioxidants (ARE (Nrf2 pathway); addition of NAC, DTT, GSH, U87): completely reversed
- OBT-induced ARE activation and loss of cell viability with Trolox (ARE (Nrf2 pathway); addition of Trolox, U87): only partially
- ARE luciferase reporter activity (ARE (Nrf2 pathway); sub-toxic doses, higher than positive control tBHQ, U87 and MDA-MB-231): strongly activated
- response of CD4+ T cells to antigenic stimulus [1]: no change
- response of CD8+ T cells to antigenic stimulus (proliferation, Ki67, granzyme B) [1]: significantly more responsive
- heme oxygenase 1 (HMOX1; HO1) protein change (GSCs (GBM8 and BT07)): top upregulated protein
- CD4+ regulatory T cells (Treg; CD25+Foxp3+) (CT2A mouse gliomas; 7.5 mg/kg/day i.p. over 4 days): decreased
- Ki-67 and granzyme B in CD8+ T cells (CT2A mouse gliomas; 7.5 mg/kg/day i.p. over 4 days): higher levels
- dendritic cells (CT2A mouse gliomas; 7.5 mg/kg/day i.p. over 4 days): significant increase
- intratumoral CD8+ cytotoxic T cells (CT2A mouse gliomas; 7.5 mg/kg/day i.p. over 4 days): increased
- levels of CD4+ T cells (CT2A mouse gliomas; 7.5 mg/kg/day i.p. over 4 days): did not change
- number of microglia and macrophages (CT2A mouse gliomas; 7.5 mg/kg/day i.p. over 4 days): not changed
- ratio of CD8+ T cells over Tregs (CT2A mouse gliomas; 7.5 mg/kg/day i.p. over 4 days): increase
- CTLA-4, PD-1, Lag-3 and Tim-3 levels (CT2A mouse gliomas; T cells): not changed
- CD47 (CT2A mouse gliomas; on all three cell types): significantly downregulated
- PD-L1 (CT2A mouse gliomas; on microglia, dendritic cells, macrophages): did not have an effect
- cytokines involved in immune response modulation (CD40, CXCL2, CCL5, CXCL-10, IL-6) (CT2A mouse glioma cells): induced secretion
